Data reported in patent publication US20260184693A1, “INHIBITORS OF SOLUTE CARRIER FAMILY 6A MEMBER 19 (SLC6A19) AND METHODS OF USE THEREOF” (Maze Therapeutics, Inc., priority 2022, published 2026).

Molecular target: T1, human SLC6A19 (Homo sapiens, UniProt Q695T7)
T1 construct: expressed in transfected cells
T1 sequence (Q695T7 1-634): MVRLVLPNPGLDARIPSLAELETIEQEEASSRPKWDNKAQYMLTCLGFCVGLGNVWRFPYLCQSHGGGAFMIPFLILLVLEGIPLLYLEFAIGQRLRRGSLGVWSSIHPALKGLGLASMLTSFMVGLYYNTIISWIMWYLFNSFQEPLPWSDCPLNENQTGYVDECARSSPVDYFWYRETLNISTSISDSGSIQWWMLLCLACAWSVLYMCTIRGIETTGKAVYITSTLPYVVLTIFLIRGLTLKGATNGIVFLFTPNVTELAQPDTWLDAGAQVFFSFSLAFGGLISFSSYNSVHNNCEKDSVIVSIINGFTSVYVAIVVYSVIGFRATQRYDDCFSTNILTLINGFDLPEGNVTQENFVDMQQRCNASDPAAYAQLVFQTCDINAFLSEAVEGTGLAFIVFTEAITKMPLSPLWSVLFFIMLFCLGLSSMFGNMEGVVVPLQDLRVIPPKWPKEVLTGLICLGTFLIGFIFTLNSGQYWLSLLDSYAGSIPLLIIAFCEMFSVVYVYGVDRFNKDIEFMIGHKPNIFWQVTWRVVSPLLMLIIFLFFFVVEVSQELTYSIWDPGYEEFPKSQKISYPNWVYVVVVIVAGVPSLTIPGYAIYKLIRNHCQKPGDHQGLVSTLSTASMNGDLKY
T1 sequence (Q9HBJ8 15-222 partner): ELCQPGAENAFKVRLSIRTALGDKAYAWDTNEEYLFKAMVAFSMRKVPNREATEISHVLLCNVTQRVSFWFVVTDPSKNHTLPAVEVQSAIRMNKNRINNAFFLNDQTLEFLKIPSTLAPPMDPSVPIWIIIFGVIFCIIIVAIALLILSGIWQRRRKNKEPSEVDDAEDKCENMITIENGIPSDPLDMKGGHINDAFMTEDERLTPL
Assay: Example B2: 13C6,15N-isoleucine uptake, RapidFire mass spectrometry, in CHO cells with doxycycline-inducible expression of human SLC6A19 and TMEM27
Format: cell-based
Conditions: read-out: SLC6A19_RapidFire Uptake Assay IC50
Summary of the method: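 CHO cells were induced with doxycycline to express human SLC6A19 with TMEM27, then pre-incubated 20 min at 37 °C with compounds (2-fold, 10-point, duplicate). Uptake of 13C6,15N-isoleucine (2 mM solution added) over a further 20 min was measured by RapidFire mass spectrometry, using 13C-leucine as internal standard.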

Row | Compound | IC50 [nM]
1 | CC(C(=O)N1CCC[C@@H](N(C)C(=O)NCc2cc3cc(Cl)ccc3[nH]2)C1)C1(O)CCC1 (stereo partly drawn) [Compound 105, 3-((5-chloro-1H-indol-2-yl)methyl)-1-((3R)-1-(2-(1-hydroxycyclobutyl)propanoyl)piperidin-3-yl)-1-methylurea] | > 27000
2 | CN(C(=O)NCc1cc2cc(Cl)ccc2[nH]1)[C@@H]1CCCN(C(=O)CC2CCCCO2)C1 (stereo partly drawn) [Compound 106, 3-((5-chloro-1H-indol-2-yl)methyl)-1-methyl-1-((3R)-1-(2-(tetrahydro-2H-pyran-2-yl)acetyl)piperidin-3-yl)urea] | 1770
3 | COc1ccc(CC(=O)N2CCC[C@@H](N(C)C(=O)NCc3cc4cc(Cl)ccc4[nH]3)C2)cc1F [Compound 107, (R)-3-((5-chloro-1H-indol-2-yl)methyl)-1-(1-(2-(3-fluoro-4-methoxyphenyl)acetyl)piperidin-3-yl)-1-methylurea] | 1250
4 | CN(C(=O)NCc1cc2cc(Cl)ccc2[nH]1)[C@@H]1CCCN(C(=O)[C@H]2CC[C@H](O)CC2)C1 [Compound 108] | 2280
5 | CCNC(=O)NC(C)C(=O)N1CCC[C@@H](N(C)C(=O)NCc2cc3cc(Cl)ccc3[nH]2)C1 (stereo partly drawn) [Compound 109, 3-((5-chloro-1H-indol-2-yl)methyl)-1-((3R)-1-((ethylcarbamoyl)alanyl)piperidin-3-yl)-1-methylurea] | 1810
6 | CN(C(=O)NCc1cc2cc(Cl)ccc2[nH]1)[C@@H]1CCCN(C(=O)C(O)CO)C1 (stereo partly drawn) [Compound 110, 3-((5-chloro-1H-indol-2-yl)methyl)-1-((3R)-1-(2,3-dihydroxypropanoyl)piperidin-3-yl)-1-methylurea] | 8560
7 | CN(C(=O)NCc1cc2cc(Cl)ccc2[nH]1)[C@@H]1CCCN(C(=O)C2(CO)CCC2)C1 [Compound 122, (R)-3-((5-chloro-1H-indol-2-yl)methyl)-1-(1-(1-(hydroxymethyl)cyclobutane-1-carbonyl)piperidin-3-yl)-1-methylurea] | 8600
8 | CN(C(=O)NCc1cc2cc(Cl)ccc2[nH]1)[C@@H]1CCCN(C(=O)C23CC(C2)C3)C1 [Compound 123, (R)-1-(1-(bicyclo[1.1.1]pentane-1-carbonyl)piperidin-3-yl)-3-((5-chloro-1H-indol-2-yl)methyl)-1-methylurea] | 427
9 | CN(C(=O)NCc1cc2cc(Cl)ccc2[nH]1)[C@@H]1CCCN(C(=O)C2CC(F)C2)C1 (stereo partly drawn) [Compound 124, (R)-3-((5-chloro-1H-indol-2-yl)methyl)-1-(1-(3-fluorocyclobutane-1-carbonyl)piperidin-3-yl)-1-methylurea] | 256
10 | CN(C(=O)NCc1cc2cc(Cl)ccc2[nH]1)[C@@H]1CCCN(C(=O)C2CCC2F)C1 (stereo partly drawn) [Compound 125, 3-((5-chloro-1H-indol-2-yl)methyl)-1-((3R)-1-(2-fluorocyclobutane-1-carbonyl)piperidin-3-yl)-1-methylurea] | 259
11 | CN(C(=O)NCc1cc2cc(Cl)ccc2[nH]1)[C@@H]1CCCN(C(=O)C2(C)COC2)C1 [Compound 126, (R)-3-((5-chloro-1H-indol-2-yl)methyl)-1-methyl-1-(1-(3-methyloxetane-3-carbonyl)piperidin-3-yl)urea] | 1440
12 | CN(C(=O)NCc1cc2cc(Cl)ccc2[nH]1)[C@@H]1CCCN(C(=O)C2(F)CCC2)C1 [Compound 127, (R)-3-((5-chloro-1H-indol-2-yl)methyl)-1-(1-(1-fluorocyclobutane-1-carbonyl)piperidin-3-yl)-1-methylurea] | 679
13 | CN(C(=O)NCc1cc2cc(Cl)ccc2[nH]1)[C@@H]1CCCN(C(=O)C2(O)CCC2)C1 [Compound 128, (R)-3-((5-chloro-1H-indol-2-yl)methyl)-1-(1-(1-hydroxycyclobutane-1-carbonyl)piperidin-3-yl)-1-methylurea] | 1820
14 | CN1CC(C(=O)N2CCC[C@@H](N(C)C(=O)NCc3cc4cc(Cl)ccc4[nH]3)C2)C1 [Compound 129, (R)-3-((5-chloro-1H-indol-2-yl)methyl)-1-methyl-1-(1-(1-methylazetidine-3-carbonyl)piperidin-3-yl)urea] | > 31800
15 | CN(C(=O)NCc1cc2cc(Cl)ccc2[nH]1)[C@@H]1CCCN(C(=O)C2CNC2)C1 [Compound 130, (R)-1-(1-(azetidine-3-carbonyl)piperidin-3-yl)-3-((5-chloro-1H-indol-2-yl)methyl)-1-methylurea] | 12100
16 | CN(C(=O)NCc1cc2cc(Cl)ccc2[nH]1)[C@@H]1CCCN(C(=O)[C@@H]2CC(=O)CN2)C1 [Compound 131, 3-((5-chloro-1H-indol-2-yl)methyl)-1-methyl-1-((R)-1-((S)-4-oxopyrrolidine-2-carbonyl)piperidin-3-yl)urea] | > 45400

Row | Compound | IC50 [nM]
17 | COCC(N)C(=O)N1CCC[C@@H](N(C)C(=O)NCc2cc3cc(Cl)ccc3[nH]2)C1 (stereo partly drawn) [Compound 132, 3-((5-chloro-1H-indol-2-yl)methyl)-1-methyl-1-((3R)-1-(O-methylseryl)piperidin-3-yl)urea] | > 31000
18 | CN(C(=O)NCc1cc2cc(Cl)ccc2[nH]1)[C@@H]1CCCN(C(=O)C2COCCN2)C1 (stereo partly drawn) [Compound 133, 3-((5-chloro-1H-indol-2-yl)methyl)-1-methyl-1-((3R)-1-(morpholine-3-carbonyl)piperidin-3-yl)urea] | > 7640
19 | CC(=O)N1CCC[C@@H](N(C)C(=O)NCc2cc3ccc(OCc4cncs4)cc3[nH]2)C1 [Compound 136, (R)-1-(1-acetylpiperidin-3-yl)-1-methyl-3-((6-(thiazol-5-ylmethoxy)-1H-indol-2-yl)methyl)urea] | 3950
20 | CC(=O)N1CCC[C@@H](N(C)C(=O)NCc2cc3cc(Cl)c(OCc4ccon4)cc3[nH]2)C1 [Compound 138, (R)-1-(1-acetylpiperidin-3-yl)-3-((5-chloro-6-(isoxazol-3-ylmethoxy)-1H-indol-2-yl)methyl)-1-methylurea] | 643
21 | CCN(C(=O)NCc1cc2ccc(OCc3ccon3)cc2[nH]1)[C@@H]1CCCN(C(C)=O)C1 [Compound 139, (R)-1-(1-acetylpiperidin-3-yl)-1-ethyl-3-((6-(isoxazol-3-ylmethoxy)-1H-indol-2-yl)methyl)urea] | 517
22 | CC(=O)N1CCC[C@@H](N(C)C(=O)NCc2cc3cc(Cl)c(OCc4cncs4)cc3[nH]2)C1 [Compound 140, (R)-1-(1-acetylpiperidin-3-yl)-3-((5-chloro-6-(thiazol-5-ylmethoxy)-1H-indol-2-yl)methyl)-1-methylurea] | 1240
23 | CC(=O)N1CCC[C@@H](N(C)C(=O)NCc2cc3ccc(OCc4ccon4)cc3[nH]2)C1 [Compound 141, (R)-1-(1-acetylpiperidin-3-yl)-3-((6-(isoxazol-3-ylmethoxy)-1H-indol-2-yl)methyl)-1-methylurea] | 670
24 | Cc1cc(COc2ccc3cc(CNC(=O)N(C)[C@@H]4CCCN(c5cccnn5)C4)[nH]c3c2)no1 [Compound 142, (R)-1-methyl-3-((6-((5-methylisoxazol-3-yl)methoxy)-1H-indol-2-yl)methyl)-1-(1-(pyridazin-3-yl)piperidin-3-yl)urea] | 1310
25 | CC(=O)N1CCC[C@@H](N(C)C(=O)NCc2cc3ccc(OCc4cc(C)on4)cc3[nH]2)C1 [Compound 143, (R)-1-(1-acetylpiperidin-3-yl)-1-methyl-3-((6-((5-methylisoxazol-3-yl)methoxy)-1H-indol-2-yl)methyl)urea] | 1090
26 | Cc1cc(COc2cc3[nH]c(CNC(=O)N(C)[C@@H]4CCCN(c5cccnn5)C4)cc3cc2Cl)no1 [Compound 144, (R)-3-((5-chloro-6-((5-methylisoxazol-3-yl)methoxy)-1H-indol-2-yl)methyl)-1-methyl-1-(1-(pyridazin-3-yl)piperidin-3-yl)urea] | 284
27 | CN(C(=O)NCc1cc2ccccc2[nH]1)C1CCCN(c2cccnn2)C1 (stereo not shown) [Compound 145, 3-((1H-indol-2-yl)methyl)-1-methyl-1-(1-(pyridazin-3-yl)piperidin-3-yl)urea] | 909
28 | CN(C(=O)NCc1cc2ccccc2[nH]1)[C@@H]1CCCN(c2cccnn2)C1 [Compound 146, (R)-3-((1H-indol-2-yl)methyl)-1-methyl-1-(1-(pyridazin-3-yl)piperidin-3-yl)urea] | 553
29 | CC(=O)N1CCC[C@@H](N(C)C(=O)NCc2cc3ccccc3[nH]2)C1 [Compound 148, (R)-3-((1H-indol-2-yl)methyl)-1-(1-acetylpiperidin-3-yl)-1-methylurea] | 1080
30 | CN1CCC[C@@H](N(C)C(=O)NCc2cc3cc(Cl)ccc3[nH]2)C1 [Compound 149, (R)-3-((5-chloro-1H-indol-2-yl)methyl)-1-methyl-1-(1-methylpiperidin-3-yl)urea] | 10100
31 | CN(C(=O)NCc1cc2ccccc2[nH]1)[C@@H]1CCCN(c2ccon2)C1 [Compound 150, (R)-3-((1H-indol-2-yl)methyl)-1-(1-(isoxazol-3-yl)piperidin-3-yl)-1-methylurea] | 91.9
